Experimental data taken from patent US9999619B2, “Piperidin-4-yl azetidine derivatives as JAK1 inhibitors” (Incyte Corporation, priority 2010, dated 2018).
Each block holds one molecule with its values, some of them ahead of it.

Assays:
[1] = biological target: human JAK1 (a.a. 837-1142) (Homo sapiens, UniProt P23458); experiment: In vitro JAK kinase assay (HTRF, phosphorylation of a biotinylated peptide), JAK1; format: biochemical; conditions: measured at 1 mM ATP
Protocol: (§1) Compounds herein were tested for inhibitory activity of JAK targets according to the following in vitro assay described in Park et al., Analytical Biochemistry 1999, 269, 94-104. The catalytic domains of human JAK1 (a.a. 837-1142), Jak2 (a.a. 828-1132) and Jak3 (a.a. 781-1124) with an N-terminal His tag were expressed using baculovirus in insect cells and purified. The catalytic activity of JAK1, JAK2 or JAK3 was assayed by measuring the phosphorylation of a biotinylated peptide. The phosphorylated peptide was detected by homogenous time resolved fluorescence (HTRF). […] Reactions were carried out at room temperature for 1 hr and then stopped with 20 μL 45 mM EDTA, 300 nM SA-APC, 6 nM Eu-Py20 in assay buffer (Perkin Elmer, Boston, Mass.). Binding to the Europium labeled antibody took place for 40 minutes and HTRF signal was measured on a Fusion plate reader (Perkin Elmer, Boston, Mass.).

[2] = biological target: Jak2 (a.a. 828-1132) (Homo sapiens (Human), UniProt O60674); experiment: In vitro JAK kinase assay (HTRF, phosphorylation of a biotinylated peptide), JAK2; format: biochemical; conditions: measured at 1 mM ATP
Chain of Jak2 (a.a. 828-1132) (O60674 828-1132): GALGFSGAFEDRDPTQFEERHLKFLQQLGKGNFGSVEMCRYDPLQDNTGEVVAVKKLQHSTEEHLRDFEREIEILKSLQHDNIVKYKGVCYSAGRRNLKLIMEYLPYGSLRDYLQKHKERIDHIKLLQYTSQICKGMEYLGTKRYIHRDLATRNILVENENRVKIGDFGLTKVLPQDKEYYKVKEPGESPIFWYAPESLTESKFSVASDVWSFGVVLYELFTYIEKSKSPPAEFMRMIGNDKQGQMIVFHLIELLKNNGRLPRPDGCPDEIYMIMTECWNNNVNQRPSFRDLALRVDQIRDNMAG
Protocol: as §1

SMILES: CC1CC(N2CC(CC#N)(n3cc(-c4ncnc5[nH]ccc45)cn3)C2)CCN1Cc1c(F)cccc1Cl (single isomer, unassigned) [Example 244, {1-[1-(2-chloro-6-fluorobenzyl)-2-methylpiperidin-4-yl]-3-[4-(7H-pyrrolo[2,3-d]pyrimidin-4-yl)-1H-pyrazol-1-yl]azetidin-3-yl}acetonitrile]
IC50 [1]: 0.005 to 0.02 µM
IC50 [2]: 0.01 to 0.05 µM

SMILES: CC1CC(N2CC(CC#N)(n3cc(-c4ncnc5[nH]ccc45)cn3)C2)CCN1Cc1c(F)cccc1Cl (single isomer, unassigned) [Example 245, {1-[1-(2-chloro-6-fluorobenzyl)-2-methylpiperidin-4-yl]-3-[4-(7H-pyrrolo[2,3-d]pyrimidin-4-yl)-1H-pyrazol-1-yl]azetidin-3-yl}acetonitrile]
IC50 [1]: 0.005 to 0.02 µM
IC50 [2]: 0.01 to 0.05 µM

SMILES: Cc1ccc(C#N)c(N2CCC(C(=O)N3CCC(N4CC(CC#N)(n5cc(-c6ncnc7[nH]ccc67)cn5)C4)CC3)CC2)n1 [Example 108, 2-{4-[(4-{3-(cyanomethyl)-3-[4-(7H-pyrrolo[2,3-d]pyrimidin-4-yl)-1H-pyrazol-1-yl]azetidin-1-yl}piperidin-1-yl)carbonyl]piperidin-1-yl}-6-methylnicotinonitrile]
IC50 [2]: 0.01 to 0.05 µM

SMILES: N#CCC1(n2cc(-c3ncnc4[nH]ccc34)cn2)CN(C2CC3CCC(C2)N3C(=O)c2ccnc(C(F)(F)F)c2)C1 (stereo not shown) [Example 144, (3-[4-(7H-pyrrolo[2,3-d]pyrimidin-4-yl)-1H-pyrazol-1-yl]-1-{8-[2-(trifluoromethyl)isonicotinoyl]-8-azabicyclo[3.2.1]oct-3-yl}azetidin-3-yl)acetonitrile]
IC50 [1]: 0.005 to 0.02 µM
IC50 [2]: 0.01 to 0.05 µM

SMILES: N#CCC1(n2cc(-c3ncnc4[nH]ccc34)cn2)CN(C2CC3CCC(C2)N3C(=O)C2CCCC2)C1 (stereo not shown) [Example 145, {1-[8-(cyclopentylcarbonyl)-8-azabicyclo[3.2.1]oct-3-yl]-3-[4-(7H-pyrrolo[2,3-d]pyrimidin-4-yl)-1H-pyrazol-1-yl]azetidin-3-yl}acetonitrile]
IC50 [1]: 0.005 to 0.02 µM
IC50 [2]: 0.01 to 0.05 µM

SMILES: N#CCC1(n2cc(-c3ncnc4[nH]ccc34)cn2)CN(C2CC3CCC(C2)N3C(=O)C2CCC(F)(F)CC2)C1 (stereo not shown) [Example 148, {1-{8-[(4,4-difluorocyclohexyl)carbonyl]-8-azabicyclo[3.2.1]oct-3-yl}-3-[4-(7H-pyrrolo[2,3-d]pyrimidin-4-yl)-1H-pyrazol-1-yl]azetidin-3-yl}acetonitrile]
IC50 [2]: ≤ 0.01 µM

SMILES: CCS(=O)(=O)N1CCC(N2CC(CC#N)(n3cc(-c4ncnc5[nH]ccc45)cn3)C2)CC1 [Example 255, {1-[1-(ethylsulfonyl)piperidin-4-yl]-3-[4-(7H-pyrrolo[2,3-d]pyrimidin-4-yl)-1H-pyrazol-1-yl]azetidin-3-yl}acetonitrile]
IC50 [2]: 0.01 to 0.05 µM

SMILES: N#CCC1(n2cc(-c3ncnc4[nH]ccc34)cn2)CN(C2CCN(S(=O)(=O)C3CC3)CC2)C1 [Example 256, {1-[1-(cyclopropylsulfonyl)piperidin-4-yl]-3-[4-(7H-pyrrolo[2,3-d]pyrimidin-4-yl)-1H-pyrazol-1-yl]azetidin-3-yl}acetonitrile]
IC50 [2]: 0.01 to 0.05 µM

SMILES: N#CCC1(n2cc(-c3ncnc4[nH]ccc34)cn2)CN(C2CCN(C(=O)OCC3CCCCC3)CC2)C1 [Example 397, cyclohexylmethyl 4-{3-(cyanomethyl)-3-[4-(7H-pyrrolo[2,3-d]pyrimidin-4-yl)-1H-pyrazol-1-yl]azetidin-1-yl}piperidine-1-carboxylate]
IC50 [2]: 0.01 to 0.05 µM

Results, then the molecule that gave them:

IC50 [1]: ≤ 0.005 µM
IC50 [2]: > 0.1 µM
SMILES: N#CCC1(n2cc(-c3ncnc4[nH]ccc34)cn2)CN(C2CCN(C(=O)c3ccnc(C(F)(F)F)c3F)CC2)C1 [Example 1, {1-{1-[3-Fluoro-2-(trifluoromethyl)isonicotinoyl]piperidin-4-yl}-3-[4-(7H-pyrrolo[2,3-d]pyrimidin-4-yl)-1H-pyrazol-1-yl]azetidin-3-yl}acetonitrile]

IC50 [1]: ≤ 0.005 µM
IC50 [2]: ≤ 0.01 µM
SMILES: N#CCC1(n2cc(-c3ncnc4[nH]ccc34)cn2)CN(C2CCN(C(=O)c3cccc(Cl)c3)CC2)C1 [Example 19, {1-[1-(3-chlorobenzoyl)piperidin-4-yl]-3-[4-(7H-pyrrolo[2,3-d]pyrimidin-4-yl)-1H-pyrazol-1-yl]azetidin-3-yl}acetonitrile]

IC50 [2]: 0.05 to 0.1 µM
SMILES: CSc1ccc(C(=O)N2CCC(N3CC(CC#N)(n4cc(-c5ncnc6[nH]ccc56)cn4)C3)CC2)cc1F [Example 62, {1-{1-[3-fluoro-4-(methylthio)benzoyl]piperidin-4-yl}-3-[4-(7H-pyrrolo[2,3-d]pyrimidin-4-yl)-1H-pyrazol-1-yl]azetidin-3-yl}acetonitrile]

IC50 [2]: 0.05 to 0.1 µM
SMILES: N#CCC1(n2cc(-c3ncnc4[nH]ccc34)cn2)CN(C2CCN(C(=O)c3ccc(C#N)c(F)c3)CC2)C1 [Example 66, 4-[(4-{3-(cyanomethyl)-3-[4-(7H-pyrrolo[2,3-d]pyrimidin-4-yl)-1H-pyrazol-1-yl]azetidin-1-yl}piperidin-1-yl)carbonyl]-2-fluorobenzonitrile]

IC50 [2]: ≤ 0.01 µM
SMILES: COc1cc(C(F)(F)F)sc1C(=O)N1CCC(N2CC(CC#N)(n3cc(-c4ncnc5[nH]ccc45)cn3)C2)CC1 [Example 70, {1-{1-[3-methoxy-5-(trifluoromethyl)-2-thienylcarbonyl]piperidin-4-yl}-3-[4-(7H-pyrrolo[2,3-d]pyrimidin-4-yl)-1H-pyrazol-1-yl]azetidin-3-yl}acetonitrile]

IC50 [1]: ≤ 0.005 µM
IC50 [2]: ≤ 0.01 µM
SMILES: Cc1csc(C(=O)N2CCC(N3CC(CC#N)(n4cc(-c5ncnc6[nH]ccc56)cn4)C3)CC2)c1 [Example 79, {1-{1-[(4-meth1-2-thienyl)carbonyl]piperidin-4-yl}-3-[4-(7H-pyrrolo[2,3-d]pyrimidin-4-yl)-1H-pyrazol-1-yl]azetidin-3-yl}acetonitrile]

IC50 [1]: 0.005 to 0.02 µM
IC50 [2]: > 0.1 µM
SMILES: N#CCC1(n2cc(-c3ncnc4[nH]ccc34)cn2)CN(C2CCN(C(=O)c3ccnc(C(F)(F)F)n3)CC2)C1 [Example 85, [3-[4-(7H-pyrrolo[2,3-d]pyrimidin-4-yl)-1H-pyrazol-1-yl]-1-(1-{[2-(trifluoromethyl)pyrimidin-4-yl]carbonyl}piperidin-4-yl)azetidin-3-yl]acetonitrile]

IC50 [1]: ≤ 0.005 µM
IC50 [2]: ≤ 0.01 µM
SMILES: N#CCC1(n2cc(-c3ncnc4[nH]ccc34)cn2)CN(C2CCN(C(=O)c3ccc(-c4cccnc4)cc3F)CC2)C1 [Example 120, {1-[1-(2-fluoro-4-pyridin-3-ylbenzoyl)piperidin-4-yl]-3-[4-(7H-pyrrolo[2,3-d]pyrimidin-4-yl)-1H-pyrazol-1-yl]azetidin-3-yl}acetonitrile]

IC50 [2]: 0.01 to 0.05 µM
SMILES: N#CCC1(n2cc(-c3ncnc4[nH]ccc34)cn2)CN(C2CCN(C(=O)c3ccc(-c4nccs4)c(F)c3)CC2)C1 [Example 122, {1-{1-[3-fluoro-4-(1,3-thiazol-2-yl)benzoyl]piperidin-4-yl}-3-[4-(7H-pyrrolo[2,3-d]pyrimidin-4-yl)-1H-pyrazol-1-yl]azetidin-3-yl}acetonitrile]

IC50 [2]: 0.01 to 0.05 µM
SMILES: CS(=O)(=O)N1CCC(N2CC(CC#N)(n3cc(-c4ncnc5[nH]ccc45)cn3)C2)CC1 [Example 254, {1-[1-(methylsulfonyl)piperidin-4-yl]-3-[4-(7H-pyrrolo[2,3-d]pyrimidin-4-yl)-1H-pyrazol-1-yl]azetidin-3-yl}acetonitrile]
